Test results from patent US12570650B2, “6-substituted pyridazine compounds as SMARCA2 and/or SMARCA4 degraders” (Aurigene Oncology Limited, priority 2020, dated 2026).

Legend:
Type in all cases: cell-based
[1] = molecular target: T1, SMARCA2 (Homo sapiens, UniProt P51531); test: SMARCA2 degradation in VCaP cells by Western blot; details: 16 hours
T1 construct: Determination of SMARCA2 and SMARCA4 Degradation in VCaP Cells by Western Blot; endogenous in cells; host or cells: VCaP (ATCC CRL-2876)
Method: Example-P2: Determination of SMARCA2 and SMARCA4 Degradation in VCaP Cells by Western Blot
VCaP (ATCC CRL-2876) was plated in 6 well plates using complete Dulbecco's Modified Eagle's Medium. On the third day, compounds of present invention were added to cells from 10 mM stocks made in DMSO (Sigma Cat no. D2650). Each concentration of compound was tested with DMSO not exceeding final percentage of 0.3 in the cells. Cells were incubated with the compound for 16 hours followed by harvesting with 1×RIPA lysis buffer (Thermo Fischer, catalogue number #89900) containing protease inhibitor cocktail (Sigma catalogue number #P-8340). Equal amount of protein was loaded on SDS PAGE gel for electrophoresis. Western blot was carried out for detection of either SMARCA2 (Cell signalling technologies, catalogue number #11966) or SMARCA4 antibody (Cell signalling technologies, catalogue number #52251). Beta-Tubulin antibody (Cell signalling technologies, catalogue number #86298) was used as loading control. Percentage of SMARCA2 or SMARCA4 degradation was calculated using formula % Degradation=100−(normalized band intensity in treated sample/normalized band intensity in DMSO sample)*100.

[2] = molecular target: T2, SMARCA4 (Homo sapiens, UniProt P51532); test: SMARCA4 degradation in VCaP cells by Western blot; details: 16 hours
T2 construct: Determination of SMARCA2 and SMARCA4 Degradation in VCaP Cells by Western Blot; endogenous in cells; host or cells: VCaP (ATCC CRL-2876)
Method: On the third day, compounds of present invention were added to cells from 10 mM stocks made in DMSO (Sigma Cat no. D2650). Each concentration of compound was tested with DMSO not exceeding final percentage of 0.3 in the cells. […] Equal amount of protein was loaded on SDS PAGE gel for electrophoresis. […] Percentage of SMARCA2 or SMARCA4 degradation was calculated using formula % Degradation=100−(normalized band intensity in treated sample/normalized band intensity in DMSO sample)*100.

[3] = test system: SK-MEL-5 cells; test: Anti proliferative activity, Cell Titer Glo assay, SK-MEL-5; details: Homo sapiens, retreatment Day 4, terminated day 8, CellTiter-Glo
Method: Example-P3: Determination of Anti Proliferative Activity of Compounds by Cell Titer Glo®(Promega) Assay
Cells were seeded into 96-well plates and the plate was incubated in 37 degrees incubator overnight. The next day, compounds were diluted 3-fold to cover 9-point concentration range in DMSO. Intermediate plate dilution was prepared in media followed with compound treatment in cells. Retreatment of cells with compound dilutions was performed on Day 4 and assay was terminated on day 8 for SK-MEL-5 cells using CellTiter-Glo and the plate was kept on orbital shaker for 20 minutes at RT. Assay was terminated on day 6 for RERF-LC-A1 without a compound retreatment. Luminescence signal was recorded on VICTOR^3 instrument. Percent inhibition of proliferation was calculated at each concentration and plotted against the compound concentration. EC50 value was calculated using GraphPad software.

T2 sequence (P51532 whole entry): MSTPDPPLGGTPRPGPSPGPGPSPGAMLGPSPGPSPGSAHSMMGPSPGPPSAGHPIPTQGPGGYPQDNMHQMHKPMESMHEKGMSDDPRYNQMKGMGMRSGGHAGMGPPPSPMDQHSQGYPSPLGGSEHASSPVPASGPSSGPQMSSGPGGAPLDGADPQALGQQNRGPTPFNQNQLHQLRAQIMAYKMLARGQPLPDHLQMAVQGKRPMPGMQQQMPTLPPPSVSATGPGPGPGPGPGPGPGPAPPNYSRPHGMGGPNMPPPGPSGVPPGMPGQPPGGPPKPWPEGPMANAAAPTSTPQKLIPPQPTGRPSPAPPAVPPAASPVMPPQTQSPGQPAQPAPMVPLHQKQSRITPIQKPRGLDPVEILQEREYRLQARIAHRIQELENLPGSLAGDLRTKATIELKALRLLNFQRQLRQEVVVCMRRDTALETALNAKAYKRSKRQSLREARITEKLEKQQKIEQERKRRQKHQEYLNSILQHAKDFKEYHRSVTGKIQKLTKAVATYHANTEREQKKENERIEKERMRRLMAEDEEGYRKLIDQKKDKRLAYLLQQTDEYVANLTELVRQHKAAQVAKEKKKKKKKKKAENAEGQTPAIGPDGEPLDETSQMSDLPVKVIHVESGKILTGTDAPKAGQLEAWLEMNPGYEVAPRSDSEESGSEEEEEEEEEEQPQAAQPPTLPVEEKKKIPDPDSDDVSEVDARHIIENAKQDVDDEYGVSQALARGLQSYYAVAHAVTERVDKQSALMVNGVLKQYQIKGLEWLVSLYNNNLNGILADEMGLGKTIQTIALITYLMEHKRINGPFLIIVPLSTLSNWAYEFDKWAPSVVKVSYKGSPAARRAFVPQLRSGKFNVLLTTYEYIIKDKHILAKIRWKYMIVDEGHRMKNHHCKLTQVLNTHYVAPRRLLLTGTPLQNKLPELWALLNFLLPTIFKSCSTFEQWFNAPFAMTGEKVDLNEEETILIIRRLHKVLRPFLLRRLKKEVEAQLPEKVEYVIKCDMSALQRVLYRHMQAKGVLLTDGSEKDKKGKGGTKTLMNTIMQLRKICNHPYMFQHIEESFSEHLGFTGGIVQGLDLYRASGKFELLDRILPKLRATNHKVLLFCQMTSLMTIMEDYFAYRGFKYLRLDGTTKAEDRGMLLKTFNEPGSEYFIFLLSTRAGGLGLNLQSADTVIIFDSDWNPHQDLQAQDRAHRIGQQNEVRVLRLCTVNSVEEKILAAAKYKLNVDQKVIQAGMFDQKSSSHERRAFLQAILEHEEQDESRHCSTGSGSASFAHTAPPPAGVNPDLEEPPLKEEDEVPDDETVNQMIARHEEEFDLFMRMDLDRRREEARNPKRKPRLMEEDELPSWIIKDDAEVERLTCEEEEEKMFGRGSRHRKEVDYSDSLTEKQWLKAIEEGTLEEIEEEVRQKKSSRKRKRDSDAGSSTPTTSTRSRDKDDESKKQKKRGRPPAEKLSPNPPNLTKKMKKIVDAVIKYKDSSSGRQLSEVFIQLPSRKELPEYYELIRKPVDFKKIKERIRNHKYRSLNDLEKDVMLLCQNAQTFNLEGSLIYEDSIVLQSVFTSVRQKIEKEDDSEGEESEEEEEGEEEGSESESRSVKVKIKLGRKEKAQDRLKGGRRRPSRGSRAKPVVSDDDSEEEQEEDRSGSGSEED
T1 sequence (P51531 whole entry): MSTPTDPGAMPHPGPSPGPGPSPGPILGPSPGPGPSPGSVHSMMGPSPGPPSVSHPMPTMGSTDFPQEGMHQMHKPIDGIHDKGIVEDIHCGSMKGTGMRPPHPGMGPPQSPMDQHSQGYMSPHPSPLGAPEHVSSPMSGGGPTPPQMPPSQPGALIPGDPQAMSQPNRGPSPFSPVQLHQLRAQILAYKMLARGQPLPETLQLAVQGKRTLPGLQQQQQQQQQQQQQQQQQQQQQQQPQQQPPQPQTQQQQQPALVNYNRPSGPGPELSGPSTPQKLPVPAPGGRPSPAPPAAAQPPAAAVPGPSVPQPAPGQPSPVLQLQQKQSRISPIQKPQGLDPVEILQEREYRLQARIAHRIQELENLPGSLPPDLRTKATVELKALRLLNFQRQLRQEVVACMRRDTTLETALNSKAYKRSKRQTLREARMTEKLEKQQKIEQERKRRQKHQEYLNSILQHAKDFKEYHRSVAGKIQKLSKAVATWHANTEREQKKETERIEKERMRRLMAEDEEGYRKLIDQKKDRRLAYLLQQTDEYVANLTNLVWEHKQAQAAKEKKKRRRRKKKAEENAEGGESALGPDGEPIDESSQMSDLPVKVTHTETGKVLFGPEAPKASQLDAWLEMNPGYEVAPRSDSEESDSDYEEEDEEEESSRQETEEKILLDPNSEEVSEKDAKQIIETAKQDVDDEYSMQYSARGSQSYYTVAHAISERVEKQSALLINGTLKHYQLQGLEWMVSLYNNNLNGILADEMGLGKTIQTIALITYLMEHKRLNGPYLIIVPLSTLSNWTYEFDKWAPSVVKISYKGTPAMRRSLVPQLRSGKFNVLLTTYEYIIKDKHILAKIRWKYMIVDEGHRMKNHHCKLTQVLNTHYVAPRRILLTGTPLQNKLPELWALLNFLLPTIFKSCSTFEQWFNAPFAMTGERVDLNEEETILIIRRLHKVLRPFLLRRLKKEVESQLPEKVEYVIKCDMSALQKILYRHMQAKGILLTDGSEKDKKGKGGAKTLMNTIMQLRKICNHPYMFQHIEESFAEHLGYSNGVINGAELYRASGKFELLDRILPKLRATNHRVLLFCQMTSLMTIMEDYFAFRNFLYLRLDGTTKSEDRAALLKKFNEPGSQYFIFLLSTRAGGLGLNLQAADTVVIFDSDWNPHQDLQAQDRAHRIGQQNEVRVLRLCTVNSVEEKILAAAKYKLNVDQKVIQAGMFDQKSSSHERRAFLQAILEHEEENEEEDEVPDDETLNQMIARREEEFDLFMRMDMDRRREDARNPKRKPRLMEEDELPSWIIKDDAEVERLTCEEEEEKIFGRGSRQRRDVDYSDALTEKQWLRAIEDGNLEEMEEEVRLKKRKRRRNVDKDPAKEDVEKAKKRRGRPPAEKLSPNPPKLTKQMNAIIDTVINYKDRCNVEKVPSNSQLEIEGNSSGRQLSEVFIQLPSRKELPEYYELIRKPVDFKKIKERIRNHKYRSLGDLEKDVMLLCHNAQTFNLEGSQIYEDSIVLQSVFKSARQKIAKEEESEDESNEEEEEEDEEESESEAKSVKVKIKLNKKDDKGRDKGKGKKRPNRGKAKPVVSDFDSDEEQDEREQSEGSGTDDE

| Structure (SMILES) | Percent degradation (at 100 nM) SMARCA2 [1] [%] | Percent degradation (at 100 nM) SMARCA4 [2] [%] | EC50 ([3]; SK-MEL-5, SK-MEL-5 cells) [nM] | EC50 ([3]; SK-MEL-5 cells) [nM] |
| --- | --- | --- | --- | --- |
| Cc1ncsc1-c1ccc([C@H](C)NC(=O)[C@@H]2C[C@@H](O)CN2C(=O)[C@@H](NC(=O)C(C)N2CCN(c3ccc(-c4cnnc(-c5ccccc5O)c4)cc3)CC2)C(C)(C)C)cc1 (single isomer, unassigned) [Compound 30] | 79 | 0 | < 250 |  |
| Cc1ncsc1-c1ccc([C@H](C)NC(=O)[C@@H]2C[C@@H](O)CN2C(=O)[C@@H](NC(=O)CN2CCC(c3ccc(-c4cnnc(-c5cc(F)ccc5O)c4)cc3)CC2)C(C)(C)C)cc1 [Compound 13, (2S,4R)-1-((S)-2-(2-(4-(4-(6-(5-fluoro-2-hydroxyphenyl)pyridazin-4-yl)phenyl)piperidin-1-yl)acetamido)-3,3-dimethylbutanoyl)-4-hydroxy-N-((S)-1-(4-(4-methylthiazol-5-yl)phenyl)ethyl)pyrrolidine-2-carboxamide] | 17 | 0 | > 500 |  |
| Cc1ncsc1-c1ccc([C@H](C)NC(=O)[C@@H]2C[C@@H](O)CN2C(=O)[C@@H](NC(=O)CN2CCC(c3ccc(-c4cnnc(-c5ccccc5O)c4)cc3F)CC2)C(C)(C)C)cc1 [Compound 15, (2S,4R)-1-((S)-2-(2-(4-(2-fluoro-4-(6-(2-hydroxyphenyl)pyridazin-4-yl)phenyl)piperidin-1-yl)acetamido)-3,3-dimethylbutanoyl)-4-hydroxy-N-((S)-1-(4-(4-methylthiazol-5-yl)phenyl)ethyl)pyrrolidine-2-carboxamide] | 60 | 0 | > 500 |  |
| Cc1ncsc1-c1ccc([C@H](C)NC(=O)[C@@H]2C[C@@H](O)CN2C(=O)[C@@H](NC(=O)C2CCN(c3ccc(-c4cnnc(-c5ccccc5O)c4)cc3)CC2)C(C)(C)C)cc1 [Compound 16, N-((S)-1-((2S,4R)-4-hydroxy-2-(((S)-1-(4-(4-methylthiazol-5-yl)phenyl)ethyl)carbamoyl)pyrrolidin-1-yl)-3,3-dimethyl-1-oxobutan-2-yl)-1-(4-(6-(2-hydroxyphenyl)pyridazin-4-yl)phenyl)piperidine-4-carboxamide] | 76 | 0 | < 250 |  |
| Cc1ncsc1-c1ccc([C@H](C)NC(=O)[C@@H]2C[C@@H](O)CN2C(=O)[C@@H](NC(=O)CC2CCC(c3ccc(-c4cnnc(-c5ccccc5O)c4)cc3)CC2)C(C)(C)C)cc1 (stereo partly drawn) [Compound 17, (2S,4R)-4-hydroxy-1-((S)-2-(2-(4-(4-(6-(2-hydroxyphenyl)pyridazin-4-yl)phenyl)cyclohexyl)acetamido)-3,3-dimethylbutanoyl)-N-((S)-1-(4-(4-methylthiazol-5-yl)phenyl)ethyl)pyrrolidine-2-carboxamide] |  |  | > 500 |  |
| Cc1ncsc1-c1ccc([C@H](C)NC(=O)[C@@H]2C[C@@H](O)CN2C(=O)[C@@H](NC(=O)CN2CCC(c3ccc(-c4cnnc(-c5ccccc5O)c4)cc3)C2)C(C)(C)C)cc1 (stereo partly drawn) [Compound 22, (2S,4R)-4-hydroxy-1-((2S)-2-(2-(3-(4-(6-(2-hydroxyphenyl)pyridazin-4-yl)phenyl)pyrrolidin-1-yl)acetamido)-3,3-dimethylbutanoyl)-N-((S)-1-(4-(4-methylthiazol-5-yl)phenyl)ethyl)pyrrolidine-2-carboxamide] |  |  | > 500 |  |
| Cc1ncsc1-c1ccc([C@H](C)NC(=O)[C@@H]2C[C@@H](O)CN2C(=O)[C@@H](NC(=O)CN2CCC(c3ccc(-c4cnnc(-c5ccccc5O)c4)cn3)CC2)C(C)(C)C)cc1 [Compound 27, (2S,4R)-4-hydroxy-1-((S)-2-(2-(4-(5-(6-(2-hydroxyphenyl)pyridazin-4-yl)pyridin-2-yl)piperidin-1-yl)acetamido)-3,3-dimethylbutanoyl)-N-((S)-1-(4-(4-methylthiazol-5-yl)phenyl)ethyl)pyrrolidine-2-carboxamide] |  |  | > 500 |  |
| Cc1ncsc1-c1ccc([C@H](C)NC(=O)[C@@H]2C[C@@H](O)CN2C(=O)[C@@H](NC(=O)CN2CCN(c3ccc(-c4cnnc(-c5cccc6cc[nH]c56)c4)cc3)CC2)C(C)(C)C)cc1 [Compound 39, (2S,4R)-1-((S)-2-(2-(4-(4-(6-(1H-indol-7-yl)pyridazin-4-yl)phenyl)piperazin-1-yl)acetamido)-3,3-dimethylbutanoyl)-4-hydroxy-N-((S)-1-(4-(4-methylthiazol-5-yl)phenyl)ethyl)pyrrolidine-2-carboxamide] | 46 | 17 |  |  |
| Cc1ncsc1-c1ccc([C@H](C)NC(=O)[C@@H]2C[C@@H](O)CN2C(=O)[C@@H](NC(=O)CN2CCN(c3ccc(-c4cnnc(-c5cccc6ccoc56)c4)cc3)CC2)C(C)(C)C)cc1 [Compound 40, (2S,4R)-1-((S)-2-(2-(4-(4-(6-(benzofuran-7-yl)pyridazin-4-yl)phenyl)piperazin-1-yl)acetamido)-3,3-dimethylbutanoyl)-4-hydroxy-N-((S)-1-(4-(4-methylthiazol-5-yl)phenyl)ethyl)pyrrolidine-2-carboxamide] | 6 | 3 |  |  |
| Cc1ncsc1-c1ccc([C@H](C)NC(=O)[C@@H]2C[C@@H](O)CN2C(=O)[C@@H](NC(=O)CN2CCN(c3ccc(-c4cnnc(-c5cccc6cn[nH]c56)c4)cc3)CC2)C(C)(C)C)cc1 [Compound 41, (2S,4R)-1-((S)-2-(2-(4-(4-(6-(1H-indazol-7-yl)pyridazin-4-yl)phenyl)piperazin-1-yl)acetamido)-3,3-dimethylbutanoyl)-4-hydroxy-N-((S)-1-(4-(4-methylthiazol-5-yl)phenyl)ethyl)pyrrolidine-2-carboxamide] | 12 | 22 |  |  |
| Cc1ncsc1-c1ccc([C@H](C)NC(=O)[C@@H]2C[C@@H](O)CN2C(=O)[C@@H](NC(=O)CN2CCC(Nc3ccc(-c4cnnc(-c5ccccc5O)c4)cc3)CC2)C(C)(C)C)cc1 [Compound 45, (2S,4R)-4-hydroxy-1-((S)-2-(2-(4-((4-(6-(2-hydroxyphenyl)pyridazin-4-yl)phenyl)amino)piperidin-1-yl)acetamido)-3,3-dimethylbutanoyl)-N-((S)-1-(4-(4-methylthiazol-5-yl)phenyl)ethyl)pyrrolidine-2-carboxamide] | 94 |  |  | < 250 |
| Cc1ncsc1-c1ccc([C@H](CO)NC(=O)[C@@H]2C[C@@H](O)CN2C(=O)[C@@H](NC(=O)CN2CCN(c3ccc(-c4cnnc(-c5ccccc5O)c4)cc3)CC2)C(C)(C)C)cc1 [Compound 48, (2S,4R)-4-hydroxy-N-((R)-2-hydroxy-1-(4-(4-methylthiazol-5-yl)phenyl)ethyl)-1-((S)-2-(2-(4-(4-(6-(2-hydroxyphenyl)pyridazin-4-yl)phenyl)piperazin-1-yl)acetamido)-3,3-dimethylbutanoyl)pyrrolidine-2-carboxamide] | 90 | 21 |  |  |
| Cc1ncsc1-c1ccc(C(CN(C)C)NC(=O)[C@@H]2C[C@@H](O)CN2C(=O)[C@@H](NC(=O)CN2CCN(c3ccc(-c4cnnc(-c5ccccc5O)c4)cc3)CC2)C(C)(C)C)cc1 (stereo partly drawn) [Compound 49, (2S,4R)-N-(2-(dimethylamino)-1-(4-(4-methylthiazol-5-yl)phenyl)ethyl)-4-hydroxy-1-((S)-2-(2-(4-(4-(6-(2-hydroxyphenyl)pyridazin-4-yl)phenyl)piperazin-1-yl)acetamido)-3,3-dimethylbutanoyl)pyrrolidine-2-carboxamide] | 93 | 48 |  |  |
